Earlier results as cited in patent US20240293600A1, “COMPOSITIONS, METHODS, AND DEVICES FOR SUSTAINED RELEASE OF AN AGENT” (Board of Supervisors of Louisiana State University and …, priority 2021, published 2024).

Structure (SMILES): O=c1c(O)c(-c2ccc(O)c(O)c2)oc2cc(O)cc(O)c12 [Quercetin, 2-(3,4-dihydroxyphenyl)-3,5,7-trihydroxy-4H-1-benzopyran-4-one]
- solubility in water: practically insoluble in water
